Consider three compounds from patent US20090181981A1, “CRYSTALLINE (R)-2-(4-CYCLOPROPANESULPHONYL-PHENYL)-N-PYRAZIN-2-YL-3-(TETRAHYDROPYRAN-4-YL)-PROPIONAMIDE” (priority 2008, published 2009).

Molecules are shown by their SMILES.

In series [1] the test system is Glucokinase (GK). The note with it: WO2004/072031; cited from earlier work.
In series [2] the target is T1, Glucokinase (GK) (Homo sapiens, UniProt P35557).
T1 sequence (P35557 1-465): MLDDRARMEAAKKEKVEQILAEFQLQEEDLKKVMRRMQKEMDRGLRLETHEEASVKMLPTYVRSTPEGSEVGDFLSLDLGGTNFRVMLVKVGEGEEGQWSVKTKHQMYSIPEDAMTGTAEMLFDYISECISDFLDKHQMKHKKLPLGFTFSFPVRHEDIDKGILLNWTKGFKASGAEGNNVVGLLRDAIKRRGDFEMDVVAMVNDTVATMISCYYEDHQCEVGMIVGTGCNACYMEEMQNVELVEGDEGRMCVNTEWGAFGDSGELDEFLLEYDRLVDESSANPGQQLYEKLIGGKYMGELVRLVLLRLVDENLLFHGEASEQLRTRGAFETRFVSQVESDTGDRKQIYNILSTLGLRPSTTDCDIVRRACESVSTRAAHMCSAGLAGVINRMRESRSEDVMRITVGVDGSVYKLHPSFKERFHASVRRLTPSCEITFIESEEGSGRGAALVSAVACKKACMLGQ
The note with it: WO2004/072031; cited from earlier work.

Series [3] can be described thus: Hygroscopicity and storage at ambient temperature. It is filed as physicochemical. The procedure: (§1) Glucokinase is important in regulation of plasma glucose levels. It is thought that GK activators increase a body's sensitivity to glucose. Consequently, GK activators are effective in the treatment of hyperglycemia, insulin resistance, and diabetes, particularly in type II diabetes. […] (WO2004/072031) However, amorphous CPTP is not suitable for pharmaceutically elegant drug formulation.
(§2) Crystalline CPTP has an onset of melting as measured by differential scanning calorimetry of 156° C., which renders it acceptable for standard industrial processes such as milling. […]

Series [4] in a line: Glass transition temperature / thermal stability of the solid. It is filed as physicochemical. The conditions noted are these: as evidenced by low glass transition temperature.
Excerpt: as §1

A short description of series [5]: pKa by photometric titration. It is filed as physicochemical. The note with it: determined by photometric titration. From the text:
Salt formation was also extensively investigated. However, formation of isolable CPTP salts is hampered by the low pK (pKa1=0.17, determined by photometric titration) of CPTP.

Series [6] in a line: Crystalline CPTP stability summary (storage at controlled temperature and relative humidity). It is filed as physicochemical. The note with it: for Chiral Purity: chiral HPLC area percent; for Achiral Purity: total impurities by achiral HPLC. The procedure: as §2
The mark [7] stands for this setting: 25° C. 60% relative humidity, 1 month.
[8] abbreviates: 25° C. 60% relative humidity, 3 months.
Where [9] appears, read: 25° C. 60% relative humidity, Initial.
Setting [10] is: 40° C. 60% relative humidity, 1 Month.
The mark [11] stands for this setting: 40° C. 60% relative humidity, 3 Months.
Where [12] appears, read: 40° C. 60% relative humidity, Initial.

Regarding `O=C(Nc1cnccn1)[C@H](CC1CCOCC1)c1ccc(S(=O)(=O)C2CC2)cc1` [Amorphous CPTP, R-2-(4-cyclopropanesulfonyl-phenyl)-N-pyrazin-2-yl-3-(tetrahydropyran-4-yl)-propionamide], the “activity in in-vivo GK assay” value with Glucokinase (GK) [1] is “active”. For the same compound, the “activity in in-vitro GK assay” value at Glucokinase (GK) [2] was “active”. Moreover, in series [3], the hygroscopicity result was “is hygroscopic”. For the same compound, in series [4], the thermal stability result was “limited thermal stability”.

Turning to `O=C(Nc1cnccn1)[C@H](CC1CCOCC1)c1ccc(S(=O)(=O)C2CC2)cc1` [CPTP, R-2-(4-cyclopropanesulfonyl-phenyl)-N-pyrazin-2-yl-3-(tetrahydropyran-4-yl)-propionamide], the pKa1 in series [5] came out at 0.17.

With `O=C(Nc1cnccn1)[C@H](CC1CCOCC1)c1ccc(S(=O)(=O)C2CC2)cc1` [Crystalline CPTP, R-2-(4-cyclopropanesulphonyl-phenyl)-N-pyrazin-2-yl-3-(tetrahydropyran-4-yl)-propionamide], in series [6] (setting [7]), the Appearance result is recorded as “White”, the Assay was determined as 99.9 % w/w, the Total Impurities was 0.18% and the Water is given as less than 0.10 % w/w. Besides, in series [6] (setting [7]), the “Chiral Purity” value worked out at 100 % a/a and the “Achiral Purity” value was found to be 0.18 % a/a. In series [6] (setting [8]), the Appearance entry is reported as “White”, the Assay is listed as 99.6 % w/w, the Total Impurities was 0.23% and the Water is given as less than 0.01 % w/w. For the same compound, in series [6] (setting [8]), the “Chiral Purity” value worked out at 100 % a/a and the “Achiral Purity” value is given as 0.23 % a/a. Moreover, in series [6] (setting [9]), the Appearance result was “White”, the Assay was 100.3 % w/w, the Total Impurities amounted to 0.25% and the Water is reported as less than 0.07 % w/w. For the same compound, in series [6] (setting [9]), the “Chiral Purity” value came to 100 % a/a and the “Achiral Purity” value amounted to 0.25 % a/a. In addition, in series [6] (setting [10]), the Appearance entry is listed as “White”, the Assay amounted to 100.1 % w/w, the Total Impurities came out at 0.2% and the Water is on record as less than 0.10 % w/w. Moreover, in series [6] (setting [10]), the “Chiral Purity” value was 100 % a/a and the “Achiral Purity” value was found to be 0.20 % a/a. For the same compound, in series [6] (setting [11]), the Appearance result is “White”, the Assay was found to be 99.3 % w/w, the Total Impurities stood at 0.25% and the Water was less than 0.01 % w/w. Also, in series [6] (setting [11]), the “Chiral Purity” value was 100 % a/a and the “Achiral Purity” value stood at 0.25 % a/a. Moreover, in series [6] (setting [12]), the Appearance result is “White”, the Assay is listed as 100.3 % w/w, the Total Impurities turned out to be 0.25% and the Water is less than 0.07 % w/w. For the same compound, in series [6] (setting [12]), the “Chiral Purity” value stood at 100 % a/a and the “Achiral Purity” value was determined as 0.25 % a/a. Besides, in series [3] (stored at ambient temperature), the degradation on storage result is reported as “minor or no degradation”; the “hygroscopicity / water uptake” value is “remains anhydrous and is not hygroscopic”.
